In the test the test system is SCZD hiPSC neurons. Format: cell-based, human.

`NC1=N[C@H](O)[C@H]2[C@H]3O[C@]4(O)O[C@@H]([C@@H](O)[C@@]2(N1)[C@@H]4O)[C@]3(O)CO` [tetrodotoxin]: the “rabies trans-neuronal tracing in the presence of drugs known to affect synaptic transmission” value (“rabies trans-neuronal tracing” for short) is given as “occurs”.

Consider ryanodine, for which the “rabies trans-neuronal tracing” value is reported as “occurs”.

`[Cl-].[K+]` [KCl]: the “rabies trans-neuronal tracing” value is “occurs”.

The values are drawn from patent US20120129835A1 (priority 2010, published 2012).
